Our source for the IC50 values is US20260166159A1, “KRAS G12D DEGRADATION AGENT, AND PREPARATION METHOD AND USE THEREFOR” (LEADINGTAC PHARMACEUTICAL (SHAOXING) CO., LTD., priority 2022, published 2026).

The target in assay [1] is T1, Human KRAS G12D 6His-tagged (Homo sapiens, UniProt P01116, G12D).
T1 construct: purchased PerkinElmer
The experiment in a line: KRAS-G12D/GTP binding assay (HTRF). Conditions: class symbols. The procedure, abridged: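 HTRF kit format: 6His-tagged KRAS G12D incubated with compound (final 0.02-5000 nM, 0.5% DMSO), anti-6His Eu cryptate antibody and GTP Red reagent for 1 h at 25° C. 665/620 nm ratio versus control gave inhibition rates; IC50 by nonlinear fit.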

The subject of assay [2] is KRAS G12D mutant human lung cancer cell A427. The assay can be described thus: 3D cell proliferation inhibition assay, A427. Conditions: A-427, 168 h, A427, 7 days, CTG, class symbols. Format: cell-based. The procedure, abridged:
(§1)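 Cells seeded at 5×10^2 per well in low-adsorption plates with compounds at 10000–0.026 nM final (0.2% DMSO) and grown 7 days at 37 °C, 5% CO2. Viability by CellTiter-Glo luminescence after 60 min at room temperature; inhibition normalized to DMSO and medium-only controls, IC50 from nonlinear log-concentration fit.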

Assay [3] relates to KRAS G12D mutant human gastric cancer cell AGS. The experiment in a line: 3D cell proliferation inhibition assay, AGS. Format: cell-based. Particulars: 168 h, 7 days, CTG, class symbols. The procedure, abridged:
as §1

T1 sequence (P01116 1-188 isoform P01116-2 G12D): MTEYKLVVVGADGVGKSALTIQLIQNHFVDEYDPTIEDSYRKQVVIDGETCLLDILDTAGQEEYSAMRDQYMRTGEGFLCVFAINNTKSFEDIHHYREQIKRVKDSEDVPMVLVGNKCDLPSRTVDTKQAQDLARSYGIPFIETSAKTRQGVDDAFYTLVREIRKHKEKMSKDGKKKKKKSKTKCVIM

For `C#Cc1c(F)ccc2cc(O)cc(-c3ncc4c(N5CC6CCC(C5)N6)nc(OCC5(CN6CCN(CC7CCC8(CC7)CCN(C(=O)c7ccc(C)c(N9CCC(=O)NC9=O)c7)CC8)CC6)CC5)nc4c3F)c12` [Example 36, 1-(5-(9-((4-((1-(((4-(3,8-diazabicyclo[3.2.1]octan-3-yl)-7-(8-ethynyl-7-fluoro-3-hydroxynaphthalen-1-yl)-8-fluoropyrido[4,3-d]pyrimidin-2-yl)oxy)methyl)cyclopropyl)methyl)piperazin-1-yl)methyl)-3-azaspiro[5.5]undecane-3-carbonyl)-2-methylphenyl)dihydropyrimidine-2,4(1H,3H)-dione], the IC50 in assay [1], in assay [2] and in assay [3] was at most 50 nM each time.

In the case of `C#Cc1c(F)ccc2cc(O)cc(-c3ncc4c(N5CC6CCC(C5)N6)nc(OCC5(CN6CCN(CCCC7CCN(C(=O)c8ccc(Cl)c(N9CCC(=O)NC9=O)c8)CC7)CC6)CCC5)nc4c3F)c12` [Example 24, 1-(5-(4-(3-(4-((1-(((4-(3,8-diazabicyclo[3.2.1]octan-3-yl)-7-(8-ethynyl-7-fluoro-3-hydroxynaphthalen-1-yl)-8-fluoropyrido[4,3-d]pyrimidin-2-yl)oxy)methyl)cyclobutyl)methyl)piperazin-1-yl)propyl)piperidine-1-carbonyl)-2-chlorophenyl)dihydropyrimidine-2,4(1H,3H)-dione], the values for the IC50 in assay [1], in assay [2] and in assay [3] were at most 50 nM, 100 to 500 nM and 50 to 100 nM, respectively.

Consider `C#Cc1c(F)ccc2cc(O)cc(-c3ncc4c(N5CC6CCC(C5)N6)nc(OC[C@@H]5CCCN5CCC5CCC6(CC5)CCN(C(=O)c5ccc(Cl)c(N7CCC(=O)NC7=O)c5)CC6)nc4c3F)c12` [Example 32, 1-(5-(9-(2-((S)-2-(((4-(3,8-diazabicyclo[3.2.1]octan-3-yl)-7-(8-ethynyl-7-fluoro-3-hydroxynaphthalen-1-yl)-8-fluoropyrido[4,3-d]pyrimidin-2-yl)oxy)methyl)pyrrolidin-1-yl)ethyl)-3-azaspiro[5.5]undecane-3-carbonyl)-2-chlorophenyl)dihydropyrimidine-2,4(1H,3H)-dione], for which the IC50 in assay [1] was 500 to 1000 nM; in assay [2] it was 1000 to 10000 nM; in assay [3], 1000 to 10000 nM.

Turning to `CCc1cccc2cc(O)cc(-c3ncc4c(N5CC6CCC(C5)N6)nc(OCC5(CN6CCN(CC7CCC8(CC7)CCN(C(=O)c7ccc(OC)c(N9CCC(=O)NC9=O)c7)CC8)CC6)CC5)nc4c3F)c12` [Example 20, 1-(5-(9-((4-((1-(((4-(3,8-diazabicyclo[3.2.1]octan-3-yl)-7-(8-ethyl-3-hydroxynaphthalen-1-yl)-8-fluoropyrido[4,3-d]pyrimidin-2-yl)oxy)methyl)cyclopropyl)methyl)piperazin-1-yl)methyl)-3-azaspiro[5.5]undecane-3-carbonyl)-2-methoxyphenyl)dihydropyrimidine-2,4(1H,3H)-dione], the IC50 in assay [1], in assay [2] and in assay [3] was at most 50 nM in each case.

Turning to `C#Cc1c(F)ccc2cc(O)cc(-c3ncc4c(N5CC6CCC(C5)N6)nc(OCC5(CN6CCN(CC7CCC8(CC7)CCN(C(=O)c7ccc(Cl)c(N9CCC(=O)N(C)C9=O)c7)CC8)CC6)CC5)nc4c3F)c12` [Example 17, 1-(5-(9-((4-((1-(((4-(3,8-diazabicyclo[3.2.1]octan-3-yl)-7-(8-ethynyl-7-fluoro-3-hydroxynaphthalen-1-yl)-8-fluoropyrido[4,3-d]pyrimidin-2-yl)oxy)methyl)cyclopropyl)methyl)piperazin-1-yl)methyl)-3-azaspiro[5.5]undecane-3-carbonyl)-2-chlorophenyl)-3-methyldihydropyrimidine-2,4(1H,3H)-dione], the IC50 in assay [1] was at most 50 nM; in assay [2] it was 50 to 100 nM; in assay [3], 50 to 100 nM.

Consider `C#Cc1c(F)ccc2cc(O)cc(-c3ncc4c(N5CC6CCC(C5)N6)nc(OCC5(CN6CCN(CCCCC7CCN(C(=O)c8ccc(Cl)c(N9CCC(=O)NC9=O)c8)CC7)CC6)CC5)nc4c3F)c12` [Example 5, 1-(5-(4-(4-(4-((1-(((4-(3,8-diazabicyclo[3.2.1]octan-3-yl)-7-(8-ethynyl-7-fluoro-3-hydroxynaphthalen-1-yl)-8-fluoropyrido[4,3-d]pyrimidin-2-yl)oxy)methyl)cyclopropyl)methyl)piperazin-1-yl)butyl)piperidine-1-carbonyl)-2-chlorophenyl)dihydropyrimidine-2,4(1H,3H)-dione], for which the IC50 in assay [1] was at most 50 nM; in assay [2], 50 to 100 nM; in assay [3], at most 50 nM.

For `C#Cc1c(F)ccc2cc(O)cc(-c3ncc4c(N5CC6CCC(C5)N6)nc(OCC5(CN6CCC(COCC7CCN(C(=O)c8ccc(Cl)c(N9CCC(=O)NC9=O)c8)CC7)CC6)CC5)nc4c3F)c12` [Example 13, 1-(5-(4-(((1-((1-(((4-(3,8-diazabicyclo[3.2.1]octan-3-yl)-7-(8-ethynyl-7-fluoro-3-hydroxynaphthalen-1-yl)-8-fluoropyrido[4,3-d]pyrimidin-2-yl)oxy)methyl)cyclopropyl)methyl)piperidin-4-yl)methoxy)methyl)piperidine-1-carbonyl)-2-chlorophenyl)dihydropyrimidine-2,4(1H,3H)-dione], the values for the IC50 in assay [1], in assay [2] and in assay [3] were at most 50 nM, 50 to 100 nM and at most 50 nM, respectively.

In the case of `C#Cc1c(F)ccc2cc(O)cc(-c3ncc4c(N5CC6CCC(C5)N6)nc(OCC5(CN6CCN(CC7CCC8(CC7)CCN(C(=O)c7ccc(Cl)c(N9CCC(=O)NC9=O)c7)CC8)CC6)CC5)nc4c3F)c12` [Example 6, 1-(5-(9-((4-((1-(((4-(3,8-diazabicyclo[3.2.1]octan-3-yl)-7-(8-ethynyl-7-fluoro-3-hydroxynaphthalen-1-yl)-8-fluoropyrido[4,3-d]pyrimidin-2-yl)oxy)methyl)cyclopropyl)methyl)piperazin-1-yl)methyl)-3-azaspiro[5.5]undecane-3-carbonyl)-2-chlorophenyl)dihydropyrimidine-2,4(1H,3H)-dione], the IC50 in assay [1], in assay [2] and in assay [3] was at most 50 nM throughout.

In the case of `C#Cc1c(F)ccc2cc(O)cc(-c3ncc4c(N5CC6CCC(C5)N6)nc(OCC5(CN6CCC(CCOCC7CCN(C(=O)c8ccc(Cl)c(N9CCC(=O)NC9=O)c8)CC7)CC6)CC5)nc4c3F)c12` [Example 10], the IC50 in assay [1] was at most 50 nM; in assay [2], 100 to 500 nM; in assay [3] it was at most 50 nM.

For `C#Cc1c(F)ccc2cc(O)cc(-c3ncc4c(N5CC6CCC(C5)N6)nc(OCC5(CN6CCN(CC7CCC8(CC7)CCN(C(=O)c7ccc(OC)c(N9CCC(=O)NC9=O)c7)CC8)CC6)CCC5)nc4c3F)c12` [Example 25, 1-(5-(9-((4-((1-(((4-(3,8-diazabicyclo[3.2.1]octan-3-yl)-7-(8-ethynyl-7-fluoro-3-hydroxynaphthalen-1-yl)-8-fluoropyrido[4,3-d]pyrimidin-2-yl)oxy)methyl)cyclobutyl)methyl)piperazin-1-yl)methyl)-3-azaspiro[5.5]undecane-3-carbonyl)-2-methoxyphenyl)dihydropyrimidine-2,4(1H,3H)-dione], the figures for the IC50 in assay [1] and in assay [2] were at most 50 nM and 100 to 500 nM, respectively.
